Data from ChEMBL document CHEMBL3044951, “Synthesis and antimicrobial activity of dimethyl- and trimethyl-substituted phosphonium salts with alkyl chains of various lengths” (1994).
Calls of active or inactive are those of the source. The calls are words filed in the database; no cut-off is given here.

Legend:
Staphylococcus aureus [1] = experiment: Bactericidal activity against methicillin-susceptible Staphylococcus aureus IFO 12732 assessed as log10 reduction in viable cell count at 28 uM up to 120 min by agar dilution test; type: functional
Escherichia coli [2] = experiment: Bactericidal activity against Escherichia coli IFO 3806 assessed as log10 reduction in viable cell count at 28 to 280 uM after 30 to 120 min by agar dilution test; type: functional, organism-based
Staphylococcus aureus [3] = experiment: Bactericidal activity against methicillin-susceptible Staphylococcus aureus IFO 12732 assessed as log10 reduction in viable cell count at 280 uM up to 30 min by agar dilution test; type: functional, organism-based
Staphylococcus aureus [4] = experiment: Bactericidal activity against methicillin-susceptible Staphylococcus aureus IFO 12732 assessed as log10 reduction in viable cell count at 28 uM up to 60 min by agar dilution test; type: functional, organism-based
Escherichia coli [5] = experiment: Bactericidal activity against Escherichia coli IFO 3806 assessed as log10 reduction in viable cell count at 2.8 uM up to 120 min by agar dilution test; type: functional
Escherichia coli [6] = experiment: Antibacterial activity against Escherichia coli IFO 3806 by spread plate method; type: functional
Staphylococcus aureus [7] = experiment: Bacteriostatic activity against methicillin-susceptible Staphylococcus aureus IFO 12732 by spread plate method; type: functional
Trichoderma harzianum = experiment: Antifungal activity against Trichoderma harzianum by spread plate method; type: functional
Rhizopus stolonifer = experiment: Antifungal activity against Rhizopus stolonifer ATCC 6227 by spread plate method; type: functional
Penicillium citrinum = experiment: Antifungal activity against Penicillium citrinum ATCC 9849 by spread plate method; type: functional
Geotrichum candidum = experiment: Antifungal activity against Galactomyces geotrichum IFO 6454 by spread plate method; type: functional
Debaryomyces hansenii = experiment: Antifungal activity against Candida famata IFO 0380 by spread plate method; type: functional
Pseudomonas aeruginosa = experiment: Antibacterial activity against Pseudomonas aeruginosa ATCC 27853 by spread plate method; type: functional
Klebsiella aerogenes = experiment: Antibacterial activity against Enterobacter aerogenes by spread plate method; type: functional
Escherichia coli [8] = experiment: Antibacterial activity against Escherichia coli NIHJ by spread plate method; type: functional
Bacillus spizizenii = experiment: Bacteriostatic activity against Bacillus subtilis subsp. spizizenii ATCC 6633 by spread plate method; type: functional
Staphylococcus aureus [9] = experiment: Bacteriostatic activity against methicillin-resistant Staphylococcus aureus by spread plate method; type: functional
Staphylococcus aureus [10] = experiment: Bacteriostatic activity against methicillin-susceptible Staphylococcus aureus 209P by spread plate method; type: functional
Escherichia coli [11] = experiment: Bactericidal activity against Escherichia coli IFO 3806 assessed as log10 reduction in viable cell count at 280 uM after 30 to 120 min by agar dilution test; type: functional, organism-based
Staphylococcus aureus [12] = experiment: Bactericidal activity against methicillin-susceptible Staphylococcus aureus IFO 12732 assessed as log10 reduction in viable cell count at 280 uM after 30 to 120 min by agar dilution test; type: functional, organism-based
Escherichia coli [13] = experiment: Bactericidal activity against Escherichia coli IFO 3806 assessed as log10 reduction in viable cell count at 2.8 to 280 uM after 30 to 120 min by agar dilution test; type: functional, organism-based
Staphylococcus aureus [14] = experiment: Bactericidal activity against methicillin-susceptible Staphylococcus aureus IFO 12732 assessed as log10 reduction in viable cell count at 2.8 to 280 uM after 30 to 120 min by agar dilution test; type: functional, organism-based
Staphylococcus aureus [15] = experiment: Bactericidal activity against methicillin-susceptible Staphylococcus aureus IFO 12732 assessed as log10 reduction in viable cell count at 2.8 uM up to 120 min by agar dilution test; type: functional
Staphylococcus aureus [16] = experiment: Bactericidal activity against methicillin-susceptible Staphylococcus aureus IFO 12732 assessed as log10 reduction in viable cell count at 0.28 uM by agar dilution test; type: functional, organism-based
Staphylococcus aureus [17] = experiment: Bactericidal activity against methicillin-susceptible Staphylococcus aureus IFO 12732 assessed as log10 reduction in viable cell count at 2.8 uM up to 30 min by agar dilution test; type: functional, organism-based
Escherichia coli [18] = experiment: Bactericidal activity against Escherichia coli IFO 3806 assessed as log10 reduction in viable cell count at 0.28 to 280 uM up to 30 min by agar dilution test; type: functional, organism-based
Staphylococcus aureus [19] = experiment: Bactericidal activity against methicillin-susceptible Staphylococcus aureus IFO 12732 assessed as log10 reduction in viable cell count at 0.28 to 280 uM up to 30 min by agar dilution test; type: functional, organism-based

Compound | MIC (Escherichia coli [6]) | MIC (Staphylococcus aureus [7]) | MIC (Trichoderma harzianum) | MIC (Rhizopus stolonifer) | MIC (Penicillium citrinum) | MIC (Geotrichum candidum) | MIC (Debaryomyces hansenii) | MIC (Pseudomonas aeruginosa) | MIC (Klebsiella aerogenes) | MIC (Escherichia coli [8]) | MIC (Bacillus spizizenii) | MIC (Staphylococcus aureus [9]) | MIC (Staphylococcus aureus [10]) | further results
CCCCCCCCCCCCCC[N+](C)(C)C.[Cl-] | – | – | – | – | – | – | – | – | – | – | – | – | – | Activity (Staphylococcus aureus [1]): >99.9%; Activity (Escherichia coli [2]): Active; Activity (Staphylococcus aureus [3]): Active
CCCCCCCCCCCCCCCCCC[N+](C)(C)C | – | – | – | – | – | – | – | – | – | – | – | – | – | Activity (Staphylococcus aureus [4]): Active
CCCCCCCCCC[N+](C)(C)CCCCCCCCCC | – | – | – | – | – | – | – | – | – | – | – | – | – | Activity (Escherichia coli [5]): inactive
CCCCCCCCCCCCCCCCCC[P+](C)(C)Cc1ccc(CC)cc1.[Cl-] [(4-ETHYLBENZYL)DIMETHYL(OCTADECYL)PHOSPHONIUM CHLORIDE] | > 200 µg/mL | 12.5 µg/mL | > 200 µg/mL | > 200 µg/mL | > 200 µg/mL | > 200 µg/mL | > 200 µg/mL | > 200 µg/mL | > 200 µg/mL | > 200 µg/mL | 25 µg/mL | 25 µg/mL | 12.5 µg/mL | –
CCCCCCCCCCCCCC[P+](C)(C)Cc1ccc(CC)cc1.[Cl-] [(4-ETHYLBENZYL)DIMETHYL(TETRADECYL)PHOSPHONIUM CHLORIDE] | 200 µg/mL | 1.56 µg/mL | > 200 µg/mL | > 200 µg/mL | > 200 µg/mL | 6.25 µg/mL | 6.25 µg/mL | 200 µg/mL | 200 µg/mL | 200 µg/mL | 1.56 µg/mL | 1.56 µg/mL | 1.56 µg/mL | –
CCCCCCCCCC[P+](C)(C)Cc1ccc(CC)cc1.[Cl-] [DECYL(4-ETHYLBENZYL)DIMETHYLPHOSPHONIUM CHLORIDE] | 12.5 µg/mL | 0.78 µg/mL | > 200 µg/mL | > 200 µg/mL | 200 µg/mL | 6.25 µg/mL | 12.5 µg/mL | 200 µg/mL | 25 µg/mL | 12.5 µg/mL | 1.56 µg/mL | 1.56 µg/mL | 0.78 µg/mL | –
CCCCCCCCCC[P+](C)(C)C.[Cl-] [DECYLTRIMETHYLPHOSPHONIUM CHLORIDE] | 200 µg/mL | 3.13 µg/mL | > 200 µg/mL | > 200 µg/mL | > 200 µg/mL | > 200 µg/mL | > 200 µg/mL | > 200 µg/mL | > 200 µg/mL | 200 µg/mL | 50 µg/mL | 50 µg/mL | 3.13 µg/mL | Activity (Escherichia coli [11]): inactive; Activity (Staphylococcus aureus [12]): inactive
CCCCCCCCCC[P+](C)(C)CCCCCCCCCC.[Cl-] [DIDECYLDIMETHYLPHOSPHONIUM CHLORIDE] | 3.13 µg/mL | 0.78 µg/mL | 200 µg/mL | > 200 µg/mL | 100 µg/mL | 3.13 µg/mL | 1.56 µg/mL | 200 µg/mL | 3.13 µg/mL | 3.13 µg/mL | 0.78 µg/mL | 0.78 µg/mL | 0.78 µg/mL | Activity (Escherichia coli [13]): Active; Activity (Staphylococcus aureus [14]): Active
CCCCCCCCCCCCCCCCCC[P+](C)(C)CCCCCCCCCCCCCCCCCC.[Cl-] [DIOCTADECYLDIMETHYLPHOSPHONIUM CHLORIDE] | > 200 µg/mL | 100 µg/mL | > 200 µg/mL | > 200 µg/mL | > 200 µg/mL | > 200 µg/mL | > 200 µg/mL | > 200 µg/mL | > 200 µg/mL | > 200 µg/mL | > 200 µg/mL | > 200 µg/mL | 100 µg/mL | Activity (Staphylococcus aureus [1]): >99.99%; Activity (Escherichia coli [13]): Active
CCCCCCCCCCCCCC[P+](C)(C)CCCCCCCCCCCCCC.[Cl-] [DITETRADECYLDIMETHYLPHOSPHONIUM CHLORIDE] | > 200 µg/mL | 12.5 µg/mL | > 200 µg/mL | > 200 µg/mL | > 200 µg/mL | > 200 µg/mL | > 200 µg/mL | > 200 µg/mL | > 200 µg/mL | > 200 µg/mL | 100 µg/mL | 200 µg/mL | 12.5 µg/mL | Activity (Escherichia coli [13]): Active; Activity (Staphylococcus aureus [15]): >99.999%; Activity (Staphylococcus aureus [3]): Active; Activity (Staphylococcus aureus [4]): Active
CCCCCCCCCCCCCCCCCC[P+](C)(C)C.[Cl-] [OCTADECYLTRIMETHYLPHOSPHONIUM CHLORIDE] | > 200 µg/mL | 0.78 µg/mL | > 200 µg/mL | > 200 µg/mL | > 200 µg/mL | > 200 µg/mL | 12.5 µg/mL | > 200 µg/mL | > 200 µg/mL | > 200 µg/mL | 3.13 µg/mL | 1.56 µg/mL | 0.78 µg/mL | Activity (Staphylococcus aureus [16]): inactive; Activity (Escherichia coli [5]): >99.9%; Activity (Staphylococcus aureus [17]): Active; Activity (Escherichia coli [18]): Active
CCCCCCCCCCCCCC[P+](C)(C)C.[Cl-] [TETRADECYLTRIMETHYLPHOSPHONIUM CHLORIDE] | 12.5 µg/mL | 0.2 µg/mL | 200 µg/mL | 200 µg/mL | 200 µg/mL | 50 µg/mL | 200 µg/mL | 200 µg/mL | 100 µg/mL | 12.5 µg/mL | 0.2 µg/mL | 1.56 µg/mL | 0.2 µg/mL | Activity (Escherichia coli [2]): Active; Activity (Staphylococcus aureus [4]): Active; Activity (Escherichia coli [18]): Active; Activity (Staphylococcus aureus [19]): Active
CCCC[P+](CCCC)(CCCC)Cc1ccc(CC)cc1.[Cl-] [TRIBUTYL(4-ETHYLBENZYL)PHOSPHONIUM CHLORIDE] | > 200 µg/mL | 50 µg/mL | > 200 µg/mL | > 200 µg/mL | > 200 µg/mL | > 200 µg/mL | > 200 µg/mL | > 200 µg/mL | > 200 µg/mL | > 200 µg/mL | 100 µg/mL | 50 µg/mL | 50 µg/mL | –
